Results from ChEMBL document CHEMBL1151820, “Antagonists of the P2X(7) receptor. From lead identification to drug development” (J Med Chem, 2009).
Each block holds one compound with its values, some of them ahead of it.

Legend:
[1] = target: T1, P2X purinoceptor 7 (Homo sapiens) (UniProt Q99572); assay: Inhibition of human P2X7 receptor in human PBMC assessed as inhibition of BzATP-induced IL1-beta release at 0.3 uM
T1 sequence (whole entry): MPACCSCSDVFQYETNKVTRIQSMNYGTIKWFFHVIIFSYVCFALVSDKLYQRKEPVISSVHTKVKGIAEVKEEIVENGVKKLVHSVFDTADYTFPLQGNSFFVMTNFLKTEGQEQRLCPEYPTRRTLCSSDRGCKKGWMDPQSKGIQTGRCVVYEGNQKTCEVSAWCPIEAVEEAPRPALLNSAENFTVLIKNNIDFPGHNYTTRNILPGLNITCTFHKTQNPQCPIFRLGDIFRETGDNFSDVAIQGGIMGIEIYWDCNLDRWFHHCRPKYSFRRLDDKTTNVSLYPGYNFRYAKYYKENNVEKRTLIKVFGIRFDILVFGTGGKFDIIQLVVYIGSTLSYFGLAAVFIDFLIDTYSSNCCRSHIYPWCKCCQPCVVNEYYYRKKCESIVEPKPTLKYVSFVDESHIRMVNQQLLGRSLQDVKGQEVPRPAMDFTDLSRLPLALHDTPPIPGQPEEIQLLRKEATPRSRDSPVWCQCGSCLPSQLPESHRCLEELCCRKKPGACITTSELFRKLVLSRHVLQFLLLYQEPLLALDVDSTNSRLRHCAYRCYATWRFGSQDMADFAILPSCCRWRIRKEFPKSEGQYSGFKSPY

P2X purinoceptor 7 [2] = target: T2, P2X purinoceptor 7 (Homo sapiens, UniProt Q99572); assay: Antagonist activity at human P2X7 receptor expressed in human U373 cells assessed as inhibition of BzATP-induced Yo-Pro uptake; assay type: functional, cell-based, U-373MG ATCC
T2 sequence (Q99572 whole entry): T1 sequence (whole entry)

P2X purinoceptor 7 [3] = target: T2, P2X purinoceptor 7; assay: Antagonist activity at human P2X7 receptor expressed in HEK293 cells assessed as inhibition of BzATP-induced calcium influx; assay type: functional, cell-based
Rattus norvegicus [4] = assay: Analgesic activity in po dosed rat model of joint pain assessed as inhibition of FCA-induced weight bearing capacity administered twice daily for 5 days; assay type: functional; details: 120 h
Rattus norvegicus [5] = assay: Antiinflammatory activity in po dosed rat acute inflammatory pain model assessed as inhibition of FCA-induced weight bearing capacity; assay type: functional
P2X purinoceptor 7 [6] = target: T2, P2X purinoceptor 7; assay: Antagonist activity at P2X7 receptor in human THP1 cells assessed as inhibition of BzATP-induced ethidium uptake; assay type: functional, cell-based, THP-1
P2X purinoceptor 7 [7] = target: T3, P2X purinoceptor 7 (Rattus norvegicus, UniProt Q64663); assay: Activity at rat P2X7 receptor expressed in HEK cells assessed as effect on BzATP-induced ethidium uptake; assay type: cell-based, HEK293
T3 sequence (Q64663 whole entry): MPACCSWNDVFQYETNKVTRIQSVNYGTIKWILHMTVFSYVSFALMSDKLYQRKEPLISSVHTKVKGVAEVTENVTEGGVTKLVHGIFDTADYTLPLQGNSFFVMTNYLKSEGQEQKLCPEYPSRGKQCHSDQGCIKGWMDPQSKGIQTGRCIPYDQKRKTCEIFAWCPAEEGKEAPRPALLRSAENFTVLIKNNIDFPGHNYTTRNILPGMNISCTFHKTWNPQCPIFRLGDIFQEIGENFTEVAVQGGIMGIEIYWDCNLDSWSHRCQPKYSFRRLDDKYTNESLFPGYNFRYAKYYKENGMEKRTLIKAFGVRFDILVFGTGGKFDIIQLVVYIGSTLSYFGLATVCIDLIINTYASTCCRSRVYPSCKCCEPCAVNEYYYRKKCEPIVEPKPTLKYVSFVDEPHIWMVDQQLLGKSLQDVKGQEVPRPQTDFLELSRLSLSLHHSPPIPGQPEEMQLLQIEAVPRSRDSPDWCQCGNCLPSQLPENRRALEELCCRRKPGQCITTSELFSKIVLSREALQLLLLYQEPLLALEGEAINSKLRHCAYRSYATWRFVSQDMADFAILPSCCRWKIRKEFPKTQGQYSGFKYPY

[8] = Plasma clearance in iv dosed rat; assay type: ADME, organism-based
[9] = Volume of distribution at steady state in iv dosed rat; assay type: ADME, organism-based; details: in vivo, read-out: Vdss
[10] = Half life in iv dosed rat; assay type: ADME, organism-based; details: in vivo
[11] = Oral bioavailability in rat; assay type: ADME, organism-based; details: in vivo
P2X purinoceptor 7 [12] = target: T2, P2X purinoceptor 7; assay: Antagonist activity at P2X7 receptor in human lymphocytes assessed as inhibition of ATP-induced Ba2+ influx; assay type: functional, cell-based
P2X purinoceptor 7 [13] = target: T2, P2X purinoceptor 7; assay: Antagonist activity at P2X7 receptor in human THP1 cells assessed as effect on BzATP-induced Yo-Pro uptake; assay type: functional, cell-based, THP-1
[14] = target: T1, P2X purinoceptor 7 (Homo sapiens); details: HEK293, at 3 µM

inhibition [1]: > 75%
Compound: CC(C)(C)OC(=O)NCC(=O)N1CCc2c(ncnc2NCC(O)C23CC4CC(CC(C4)C2)C3)C1 (stereo not given)

IC50 (P2X purinoceptor 7 [2]): 631 nM
Compound: Fc1ccccc1CC1=N[C@H](c2ccccc2)[C@H](c2ccccc2)N1

IC50 (P2X purinoceptor 7 [3]): 1.26 nM
Compound: CN([C@@H](Cc1ccc(OS(=O)(=O)c2cccc3cnccc23)cc1)C(=O)N1CCN(c2ccc(F)cc2)CC1)S(=O)(=O)c1cccc2cnccc12

IC50 (P2X purinoceptor 7 [2]): 39.8 nM
Compound: C[C@@]1(c2cccc(F)c2)N=C(NCc2cccc(F)c2)N[C@@H]1c1cccc(F)c1

Compound: CN1C(=O)CCC1C(=O)NCc1ccc(Cl)cc1Cl (stereo not given)
ED50 (Rattus norvegicus [4]): < 20 mg/kg
ED50 (Rattus norvegicus [5]): < 20 mg/kg

IC50 (P2X purinoceptor 7 [2]): 100 nM
Compound: Fc1cccc(CNC2=N[C@@H](c3ccccc3)[C@@H](c3ccccc3)N2)c1

IC50 (P2X purinoceptor 7 [6]): 10 nM
IC50 (P2X purinoceptor 7 [7]): 39.8 nM
Compound: O=C(NNc1cccc2ncccc12)C12CC3CC(CC(C3)C1)C2

IC50 (P2X purinoceptor 7 [2]): 63.1 nM
Compound: Clc1ccccc1CCC1=N[C@@H](c2ccccc2)[C@@H](c2ccccc2)N1

IC50 (P2X purinoceptor 7 [2]): 10 nM
Compound: CC(C)(CC1=N[C@H](c2ccccc2)[C@H](c2ccccc2)N1)c1ccccc1

IC50 (P2X purinoceptor 7 [2]): 126 nM
Compound: Clc1cccc(CCC2=N[C@H](c3ccccc3)[C@H](c3ccccc3)N2)c1

clearance [8]: 23 mL/min/kg
Vd [9]: 11.8 L/kg
half-life [10]: 4.4 h
bioavailability [11]: 5%
Compound: Cc1ccc2c(N/C(=N\C#N)N3CCN(C(=O)c4ccc(Cl)cc4)CC3C(C)C)cccc2n1 (stereo not given)

IC50 (P2X purinoceptor 7 [6]): 15.8 nM
IC50 (P2X purinoceptor 7 [7]): 12.6 nM
Compound: Clc1cccc(-n2cnnc2NCc2cccnc2N2CCCC2)c1Cl

IC50 (P2X purinoceptor 7 [3]): 63.1 nM
Compound: CN([C@@H](Cc1ccc(OS(=O)(=O)c2cccc3cnccc23)cc1)C(=O)N1CCC(Cc2ccccc2)CC1)S(=O)(=O)c1cccc2cnccc12

IC50 (P2X purinoceptor 7 [12]): 15.8 nM
Compound: CN([C@@H](Cc1ccc(OS(=O)(=O)c2cccc3cnccc23)cc1)CN1CCN(c2ccccc2)CC1)S(=O)(=O)c1cccc2cnccc12

IC50 (P2X purinoceptor 7 [3]): 12.6 nM
Compound: O=C(CNS(=O)(=O)c1cccc2cnccc12)N1CCN(c2ccccc2F)CC1

IC50 (P2X purinoceptor 7 [3]): 20 nM
Compound: CN([C@@H](Cc1ccc(OS(=O)(=O)c2cccc3cnccc23)cc1)C(=O)N1CCN(Cc2ccccc2)CC1)S(=O)(=O)c1cccc2cnccc12

clearance [8]: 68 mL/min/kg
Vd [9]: 5.3 L/kg
half-life [10]: 0.9 h
Compound: Cc1ccccc1N=C(NC#N)N1CCN(C(=O)Nc2ccc(Cl)cc2)C(c2ccccc2)C1 (stereo not given)

IC50 (P2X purinoceptor 7 [2]): 126 nM
Compound: Cc1cccc([C@H]2NC(NCc3cccc(F)c3)=N[C@H]2c2cccc(C)c2)c1

inhibition [1]: > 75%
Compound: O=C(CC12CC3CC(CC(C3)C1)C2)Nc1ncnc2c1CCN(S(=O)(=O)c1ccc(F)cc1F)C2

IC50 (P2X purinoceptor 7 [2]): 631 nM
Compound: c1ccc(CCCCC2=N[C@H](c3ccccc3)[C@H](c3ccccc3)N2)cc1

IC50 (P2X purinoceptor 7 [6]): 50.1 nM
IC50 (P2X purinoceptor 7 [7]): 50.1 nM
Compound: C=C1C2(C(=O)NNc3ccccc3)CCC(C2)C1(C)C (stereo not given)

IC50 (P2X purinoceptor 7 [2]): 31.6 nM
Compound: c1ccc([C@H]2N=C(C3Cc4ccccc4C3)N[C@H]2c2ccccc2)cc1

IC50 (P2X purinoceptor 7 [3]): 100 nM
Compound: CN([C@@H](Cc1ccc(OS(=O)(=O)c2cccc3cnccc23)cc1)C(=O)N1CCN(c2ccc(Cl)cc2)CC1)S(=O)(=O)c1cccc2cnccc12

IC50 (P2X purinoceptor 7 [2]): 31.6 nM
Compound: CC(CC1=N[C@H](c2ccccc2)[C@H](c2ccccc2)N1)c1ccccc1 (stereo not given in full)

IC50 (P2X purinoceptor 7 [3]): 31.6 nM
Compound: O=C(CNS(=O)(=O)c1cccc2cnccc12)N1CCN(Cc2ccccc2)CC1

IC50 (P2X purinoceptor 7 [13]): 10 nM
Compound: Cc1ccc(-c2ccc(Cl)c(C(=O)NCC3(O)CCCC(C)(C)C3)c2)nc1 (stereo not given)

Compound: CN1C(=O)CCC1C(=O)NCc1cccc(C(F)(F)F)c1Cl (stereo not given)
ED50 (Rattus norvegicus [4]): < 20 mg/kg
ED50 (Rattus norvegicus [5]): < 20 mg/kg

inhibition [14]: < 10%
Compound: CCOC(=O)N[C@@H](Cc1ccc(OS(=O)(=O)c2cccc3cccnc23)cc1)C(=O)N1CCN(C(=O)OC(C)(C)C)CC1

IC50 (P2X purinoceptor 7 [3]): ≤ 200 nM
Compound: COc1cccc(NC(=O)c2cccc(Cc3c(C)nn(CCO)c3-c3ccccc3)c2)c1

IC50 (P2X purinoceptor 7 [2]): 79.4 nM
Compound: Fc1ccc(CC2=N[C@H](c3ccccc3)[C@H](c3ccccc3)N2)cc1
